Values of other authors, collected in patent US7541359B2, “N-heteroarylpiperazinyl ureas as modulators of fatty acid amide hydrolase” (Janssen Pharmaceutica N.V., priority 2005, dated 2009).

Key:
rats [1] = conditions: cited from earlier work
rats [2] = conditions: cited from earlier work; remark: listed apart in the source
FAAH = molecular target: T1, FAAH (Homo sapiens, UniProt O00519); design: T84 frozen pellets (contents of 1-4×15 cm culture dishes) were homogenized in 300 mL of FAAH assay buffer; endogenous in cells; host or cells: T84 cells (homogenate); conditions: cited from earlier work
T1 sequence (O00519 1-579): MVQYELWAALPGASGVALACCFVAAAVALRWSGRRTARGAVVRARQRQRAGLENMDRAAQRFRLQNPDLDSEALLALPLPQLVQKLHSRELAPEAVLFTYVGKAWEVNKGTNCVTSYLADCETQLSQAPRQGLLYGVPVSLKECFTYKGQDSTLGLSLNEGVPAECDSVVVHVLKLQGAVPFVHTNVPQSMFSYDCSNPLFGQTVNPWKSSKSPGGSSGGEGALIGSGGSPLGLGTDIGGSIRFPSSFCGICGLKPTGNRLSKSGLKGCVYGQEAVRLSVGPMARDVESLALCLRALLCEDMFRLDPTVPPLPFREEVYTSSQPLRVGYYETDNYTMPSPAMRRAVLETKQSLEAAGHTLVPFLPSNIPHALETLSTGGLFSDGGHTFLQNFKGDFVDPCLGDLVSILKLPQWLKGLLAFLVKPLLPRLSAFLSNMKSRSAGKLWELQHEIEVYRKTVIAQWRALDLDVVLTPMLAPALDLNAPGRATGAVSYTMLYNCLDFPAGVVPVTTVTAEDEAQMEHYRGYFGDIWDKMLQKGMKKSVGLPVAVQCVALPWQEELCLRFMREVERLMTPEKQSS

CREAE mice = conditions: model of multiple sclerosis; cited from earlier work
rats [3] = conditions: cited from earlier work; remark: listed apart in the source
rats [4] = conditions: cited from earlier work; remark: listed apart in the source
rats [5] = conditions: cited from earlier work; remark: listed apart in the source
rats [6] = conditions: rat; cited from earlier work

## O=C(CCCCCCc1ccccc1)c1ncc(-c2ccccn2)o1 [OL-135]
Rats [1]
  analgesic activity in the tail emersion test of thermal nociception: analgesic activity
Rats [2]
  analgesic efficacy/activity in the hot plate test: analgesic activity
FAAH
  inhibition of FAAH: potent inhibitor

## CCCCCCCCCCCCCCCCS(=O)(=O)F [AM374]
CREAE mice
  reduction of spasticity: significantly reduce spasticity

## Cc1nc(-c2ccccc2)c(-c2ccccc2)n1CCCCCCNC(=O)Oc1ccccc1F [BMS-1]
Rats [3]
  analgesic effect in the Hargraves test of acute thermal nociception: analgesic effect
Rats [4]
  analgesic effect in the Chung spinal nerve ligation model of neuropathic pain: analgesic effect

## NC(=O)c1cccc(-c2cccc(OC(=O)NC3CCCCC3)c2)c1 [URB-597]
Rats [5]
  efficacy in the zero plus maze model of anxiety: efficacy
Rats [2]
  analgesic efficacy/activity in the hot plate test: analgesic efficacy
Rats [6]
  analgesic efficacy in the formalin test: analgesic efficacy
